Data on 1 molecule can be found in PMC6886544.

Series [1] deals with T1, EGFR-L858R/T790M (Homo sapiens, UniProt P00533, L858R/T790M). Put plainly: HTRF KinEASE-TK activity-based assay, EGFR-L858R/T790M. To be noted: EGFR HTRF IC50 L858R/T790M, ATP at Km (4 µM), 30 min preincubation; mean ± SD of three independent measurements in duplicates. A general note: TR-FRET usually uses a lanthanide donor and a delayed reading to cut background.
In series [2] the test system is A431 cells (EGFR wild type). The series is described as follows: CellTiter-Glo viability assay, A431. To be noted: Homo sapiens, A-431, 96 h, read-out: EGFR CTG EC50 A431, A431, 96 hours, CellTiter-Glo.
Protocol: (§1) A431, HCC827, H1975, A549 and H358 cells were obtained from the American Type Culture Collection (ATCC). A431 cells were cultured in DMEM high glucose media (Life Technologies, Germany), and HCC827, H1975, A549 as well as H358 cells were cultured in RPMI media (Life Technologies, Germany), both containing L-Glutamine and were supplemented with 10% FBS (GE Healthcare, Austria) and 1% PenStrep (Life Technologies, Germany) in a humidified incubator at 37 °C and 5% CO2.
(§2) Cells were seeded at cell numbers that assure linearity and optimal signal intensity (150-300 cells/well, 25 µL) and cultured for 24 hours in serum- and antibiotics-containing media in humidified chambers at 37 °C / 5% CO2. The cells were then treated with EGFR inhibitors in serial
(§3) Afterwards viability studies were carried out using CellTiter-Glo Assay (Promega, USA) that is a homogeneous method of determining the number of viable cells in culture. It is based on quantification of ATP, indicating the presence of metabolically active cells. For these studies, CellTiter-Glo reagent was prepared according to the instructions of the kit and diluted 1:1 with the complete growth medium suitable for the corresponding cell line. Thereon, reagent and assay plates were equilibrated at room temperature for 20 min. Equal volumes of the reagent were added to the volume of culture medium present in each well (25 µL). The plates were mixed for 2 minutes on an orbital shaker to induce cell lysis. The microplates were then incubated at room temperature for 20 minutes for stabilization of the luminescent signal. Following incubation the luminescence was recorded on an EnVision microplate reader (Perkin Elmer) using 500 ms integration time. The data was then analyzed using the Quattro Research Software Suite for EC50-determination. As quality control the Z’-factor was calculated from 16 positive and negative control values. Only assay results showing a Z’-factor ≥0.5 were used for further analysis. All data points were measured in duplicates for each plate and were replicated in at least two plates.
Series [3] has as its system HCC827 cells (EGFR-delE746_A750). The series is described as follows: CellTiter-Glo viability assay, HCC827.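 Further: luminescence from ATP content as a measure of metabolically active cells, in RPMI with 10% FBS, compound added as serial dilutions after 24 h of preculture.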 Type of series: cell-based. The following applies: Homo sapiens; HCC827, 96 hours, CellTiter-Glo; read-out: EGFR CTG EC50 HCC827. (In general: In ATP-based viability assays light output follows the ATP content of the culture.)
Protocol: as §1, §2, §3
In another series the test system is A549 cells (KRAS mutant). Put plainly: CellTiter-Glo viability assay, A549. The following applies: Homo sapiens, A549, 96 h, read-out: KRAS CTG EC50 A549.
Series [4] deals with T2, EGFR-L858R (Homo sapiens, UniProt P00533, L858R). The series is described as follows: Kinetic characterization (Ki, kinact), EGFR-L858R.
T2 sequence (P00533 25-1210 L858R): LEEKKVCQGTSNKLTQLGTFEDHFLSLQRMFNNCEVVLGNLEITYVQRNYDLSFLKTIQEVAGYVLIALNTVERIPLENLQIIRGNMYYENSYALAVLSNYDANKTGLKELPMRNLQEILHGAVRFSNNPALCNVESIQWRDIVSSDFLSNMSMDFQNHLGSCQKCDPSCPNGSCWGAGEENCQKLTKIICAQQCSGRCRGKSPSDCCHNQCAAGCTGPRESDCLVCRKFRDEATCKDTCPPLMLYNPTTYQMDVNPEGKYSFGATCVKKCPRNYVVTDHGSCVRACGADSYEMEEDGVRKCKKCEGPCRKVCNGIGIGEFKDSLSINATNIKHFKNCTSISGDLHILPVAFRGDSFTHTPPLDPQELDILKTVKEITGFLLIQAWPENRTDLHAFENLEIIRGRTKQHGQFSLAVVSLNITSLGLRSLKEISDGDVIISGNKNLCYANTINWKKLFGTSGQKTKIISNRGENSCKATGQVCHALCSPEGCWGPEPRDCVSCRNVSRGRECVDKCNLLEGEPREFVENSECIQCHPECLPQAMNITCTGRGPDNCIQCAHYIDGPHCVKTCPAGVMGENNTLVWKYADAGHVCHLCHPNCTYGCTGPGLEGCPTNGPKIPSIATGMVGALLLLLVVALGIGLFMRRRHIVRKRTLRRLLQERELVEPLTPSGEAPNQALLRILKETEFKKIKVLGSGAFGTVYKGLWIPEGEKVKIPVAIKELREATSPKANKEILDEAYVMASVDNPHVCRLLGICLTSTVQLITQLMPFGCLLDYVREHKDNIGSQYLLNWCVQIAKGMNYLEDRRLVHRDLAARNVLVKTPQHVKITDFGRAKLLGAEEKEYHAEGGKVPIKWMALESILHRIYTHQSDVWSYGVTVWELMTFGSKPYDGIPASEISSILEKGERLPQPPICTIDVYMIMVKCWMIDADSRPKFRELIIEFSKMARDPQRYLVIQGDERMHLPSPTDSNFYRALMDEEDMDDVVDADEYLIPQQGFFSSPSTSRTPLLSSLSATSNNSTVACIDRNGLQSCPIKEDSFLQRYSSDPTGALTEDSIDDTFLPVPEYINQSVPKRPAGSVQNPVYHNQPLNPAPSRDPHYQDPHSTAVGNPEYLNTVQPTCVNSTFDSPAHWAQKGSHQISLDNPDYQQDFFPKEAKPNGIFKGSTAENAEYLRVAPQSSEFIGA
For series [5], the system named is H1975 cells (EGFR-L858R/T790M). Put plainly: CellTiter-Glo viability assay, H1975. The following applies: Homo sapiens, NCI-H1975, 96 h, read-out: EGFR CTG EC50 H1975, H1975, 96 hours, CellTiter-Glo.
Protocol: as §1, §2, §3
Series [6] can be described thus: Microsomal stability (phase I), mouse. The following applies: mouse liver microsomes, up to 60 minutes, 37 °C. Type of series: in vitro ADME. As to the method:
Microsomal stability (phase I) assay.
Metabolic stability under oxidative conditions was measured in liver microsomes from different
time up to 50 minutes (HLM) or 60 minutes (MLM) at 37 °C. Based on the compound half-life t1/2,
the in vitro intrinsic clearance CLint was calculated. […]
In general terms: Liver microsomes are a subcellular fraction often used to study metabolism.

In series [7] the test system is EGFR and downstream cascade phosphorylation in H1975 cells. The series is described as follows: Western blot analysis in H1975 cells. In kind it is cell-based. To be noted: 1 h inhibitor then EGF stimulation. As to the method:
and incubated at 37 °C and 5% CO2. On day 2 cells were starved over night with media containing 0.5% FBS to be incubated on day 3 for 1 h with EGFR inhibitors following an additional 30 min of EGF stimulation at 50 ng/mL. The media was discarded and cells were washed once with DPBS
1x. Using 100 μL per well of lysis buffer, cells were then scraped off and lysed while rotating (Stuart Scientific, Staffordshire, UK) for 1 h at 4 °C. […] Supernatant was transferred into new tube and protein concentrations were determined with the Bio-Rad Protein Assay (Bio-Rad Laboratories, Hercules, CA). […]
captured and quantified using a FUJI LAS3000 system with Science Lab 2001 ImageGauge 4.0 software (Fujifilm Medial Systems, Stamford CT, USA). […]
glycerol, 1 mM TCEP, pH 8) on ice for 1 h. We analyzed the aliquots by ESI-MS using an Thermo Fisher Scientific Dionex UltiMate 3000 HPLC system connected to a Thermo Fisher Scientific Velos Pro (2d ion trap). Therefore, 5 μL of sample was injected and separated using a Vydac 214TP C4 5 μm column (150 mm x 2.1 mm) starting at 20% of solvent B for 5 minutes followed by a gradient up to 90% of solvent B over 14 min with a flow rate of 210 μL/min with 0.1% TFA in water as solvent A and 0.1% TFA in MeCN as solvent B. A mass range of 700 to 2000 m/z was scanned and raw data was deconvoluted and analyzed with MagTran software (Z.Q. Zhang, A.G. […]

For the next series, the system named is H358 cells (KRAS mutant). Put plainly: CellTiter-Glo viability assay, H358.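 Further: viable cell number estimated from ATP-dependent luminescence following exposure to serially diluted inhibitor.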 In kind it is cell-based. The following applies: Homo sapiens, NCI-H358; H358, 96 hours, CellTiter-Glo; read-out: KRAS CTG EC50 H358.
In series [8] the target is T3, EGFR-wt (Homo sapiens, UniProt P00533). The series is described as follows: HTRF KinEASE-TK activity-based assay, EGFR-wt. To be noted: EGFR HTRF IC50 wt, ATP at Km (9.5 µM), 30 min preincubation; mean ± SD of three independent measurements in duplicates.
T3 sequence (P00533 25-1210): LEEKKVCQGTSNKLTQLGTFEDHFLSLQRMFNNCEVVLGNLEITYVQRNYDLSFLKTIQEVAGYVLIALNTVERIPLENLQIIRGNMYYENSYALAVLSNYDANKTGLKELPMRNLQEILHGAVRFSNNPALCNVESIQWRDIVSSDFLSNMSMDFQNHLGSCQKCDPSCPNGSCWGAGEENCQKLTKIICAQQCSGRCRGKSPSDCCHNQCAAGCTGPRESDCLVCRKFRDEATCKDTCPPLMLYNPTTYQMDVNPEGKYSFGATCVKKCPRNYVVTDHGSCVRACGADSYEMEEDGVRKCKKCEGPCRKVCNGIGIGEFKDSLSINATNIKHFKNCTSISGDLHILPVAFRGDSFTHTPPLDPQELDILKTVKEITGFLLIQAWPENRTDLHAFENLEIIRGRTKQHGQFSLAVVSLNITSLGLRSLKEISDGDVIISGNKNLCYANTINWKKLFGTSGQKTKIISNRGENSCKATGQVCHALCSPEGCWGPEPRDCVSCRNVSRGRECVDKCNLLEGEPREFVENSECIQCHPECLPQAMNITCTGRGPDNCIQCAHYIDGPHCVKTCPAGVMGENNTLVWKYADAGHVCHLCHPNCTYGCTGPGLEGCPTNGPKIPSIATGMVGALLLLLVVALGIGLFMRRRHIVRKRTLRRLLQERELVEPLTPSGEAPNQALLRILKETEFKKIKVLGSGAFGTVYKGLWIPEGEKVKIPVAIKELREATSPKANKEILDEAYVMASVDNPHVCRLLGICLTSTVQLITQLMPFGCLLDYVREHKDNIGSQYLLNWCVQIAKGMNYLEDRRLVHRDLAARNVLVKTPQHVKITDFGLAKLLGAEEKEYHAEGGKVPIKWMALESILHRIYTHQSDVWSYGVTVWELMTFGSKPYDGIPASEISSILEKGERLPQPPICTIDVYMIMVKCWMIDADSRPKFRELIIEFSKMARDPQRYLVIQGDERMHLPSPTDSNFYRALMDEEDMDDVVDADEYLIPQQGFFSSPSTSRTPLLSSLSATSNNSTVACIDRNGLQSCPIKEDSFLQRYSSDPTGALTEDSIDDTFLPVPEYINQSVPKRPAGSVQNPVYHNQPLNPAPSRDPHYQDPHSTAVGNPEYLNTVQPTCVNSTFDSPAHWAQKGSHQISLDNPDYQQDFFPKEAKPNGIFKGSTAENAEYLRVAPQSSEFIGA
In series [9] the target is T1, EGFR-L858R/T790M. Put plainly: Kinetic characterization (Ki, kinact), EGFR-L858R/T790M.
The target of series [10] is T2, EGFR-L858R. The series is described as follows: HTRF KinEASE-TK activity-based assay, EGFR-L858R.
Series [11] addresses T3, EGFR-wt. Put plainly: Kinetic characterization (Ki, kinact), EGFR-wt.

T1 sequence (P00533 25-1210 T790M/L858R): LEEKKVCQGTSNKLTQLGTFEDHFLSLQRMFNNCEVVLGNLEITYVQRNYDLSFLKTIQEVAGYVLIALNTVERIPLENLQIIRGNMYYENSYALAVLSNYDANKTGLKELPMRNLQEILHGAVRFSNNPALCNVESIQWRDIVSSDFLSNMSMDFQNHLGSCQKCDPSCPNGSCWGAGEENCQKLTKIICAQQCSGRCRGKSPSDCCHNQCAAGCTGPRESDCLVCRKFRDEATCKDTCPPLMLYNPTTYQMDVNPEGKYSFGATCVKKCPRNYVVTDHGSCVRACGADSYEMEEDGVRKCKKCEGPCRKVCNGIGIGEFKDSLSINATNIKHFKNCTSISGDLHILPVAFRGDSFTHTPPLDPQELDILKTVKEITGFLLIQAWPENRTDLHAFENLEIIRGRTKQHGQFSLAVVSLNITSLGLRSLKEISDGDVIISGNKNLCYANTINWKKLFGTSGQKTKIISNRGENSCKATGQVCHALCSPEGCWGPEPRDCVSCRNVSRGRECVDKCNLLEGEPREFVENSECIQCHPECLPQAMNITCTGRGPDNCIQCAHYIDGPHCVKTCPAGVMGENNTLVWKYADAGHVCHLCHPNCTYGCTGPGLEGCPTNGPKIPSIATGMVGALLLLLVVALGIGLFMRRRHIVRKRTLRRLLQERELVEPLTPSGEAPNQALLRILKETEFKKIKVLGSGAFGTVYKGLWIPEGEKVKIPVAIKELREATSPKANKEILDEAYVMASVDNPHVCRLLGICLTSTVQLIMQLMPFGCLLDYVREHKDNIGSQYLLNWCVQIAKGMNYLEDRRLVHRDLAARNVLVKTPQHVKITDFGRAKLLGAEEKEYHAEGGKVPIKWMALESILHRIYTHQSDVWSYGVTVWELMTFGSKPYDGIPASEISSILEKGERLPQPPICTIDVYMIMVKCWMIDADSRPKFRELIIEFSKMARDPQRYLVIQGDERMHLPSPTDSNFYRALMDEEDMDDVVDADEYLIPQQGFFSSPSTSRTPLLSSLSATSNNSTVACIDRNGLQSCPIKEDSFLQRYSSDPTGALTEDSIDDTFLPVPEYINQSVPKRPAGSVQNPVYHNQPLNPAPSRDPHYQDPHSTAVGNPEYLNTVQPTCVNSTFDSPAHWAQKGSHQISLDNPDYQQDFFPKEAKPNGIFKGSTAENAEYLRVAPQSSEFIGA
Protocol for A549 cells (KRAS mutant): as §1, §2, §3
Protocol for H358 cells (KRAS mutant): as §1, §2, §3

Regarding `C=CC(=O)Nc1cccc(-c2c(-c3ccc(N4CCN(C)CC4)cc3)[nH]c3ncn(C(C)C)c(=O)c23)c1` [Compound 29g], the IC50 (in general, the concentration at which inhibition is half-maximal) on EGFR-L858R/T790M [1] was 1 ± 0.3 nM; against EGFR-wt [8], 1 ± 0.1 nM; on EGFR-L858R [10], 0.4 nM. Also, the EC50 (as a rule, the concentration at which the effect is half-maximal) in series [2] stood at 1410 ± 917 nM; in [3] it was 67 ± 7 nM; in the series on A549 cells (KRAS mutant) it was 5.72 ± 0.24 µM; in series [5], 65 ± 11 nM; with H358 cells (KRAS mutant), 9.39 ± 3.38 µM. The Ki (usually a dissociation constant, usually derived from enzyme kinetics or from competition with a known ligand) on EGFR-L858R [4] turned out to be 10 ± 1 nM; at EGFR-L858R/T790M [9], 15 ± 3 nM; at EGFR-wt [11], 10 ± 1 nM. Also, the kinact (usually the maximal first-order rate at which the target is inactivated) at EGFR-L858R [4] was 0.00317 s⁻¹; on EGFR-L858R/T790M [9] it was 0.00433 s⁻¹; on EGFR-wt [11] it was 0.00167 s⁻¹. Moreover, the kinact/KI (usually the second-order rate constant of inactivation) on EGFR-L858R [4] turned out to be 310000 ± 110000 M⁻¹ s⁻¹; on EGFR-L858R/T790M [9], 300000 ± 90000 M⁻¹ s⁻¹; on EGFR-wt [11] it was 160000 ± 60000 M⁻¹ s⁻¹. Moreover, in series [6], the microsomal CLint – broadly, a measure of how fast metabolising enzymes remove a compound, apart from limits set by blood flow – at 3 µM was 8 µL/min/mg. Besides, in series [7], the “concentration at which phosphorylation of EGFR and downstream proteins was reduced/inhibited” value is given as “around 100 nM”.
